Measured values from patent US12234256B2, “Molecular degraders of extracellular proteins” (priority 2021, dated 2025).

Assays:
[1] = system: α-DNP antibody; assay: Ternary complex formation between hepatocytes and α-DNP antibody; assay type: cell-based; conditions: FIG. 6B; competitive binders of ASGPR or α-DNP antibody
[2] = system: α-DNP antibody; assay: In vivo serum levels of α-DNP antibody, ELISA; conditions: FIG. 8D; single variable dose; mice
Experimental: In vivo experiments were performed under Yale University IACUC supervision following protocol entitled “pre-clinical evaluation of small molecule immunomodulators” (Protocol number 2017-11445). Experiments were performed in male nude mice purchased from Jackson Laboratory (NU/J, Stock No. 002019). Compounds were administered i.p. in a volume of 100 μL PBS. Approximately 25 μL of blood was collected at each time point by saphenous bleed. Antibody was administered as 40 μg in 100 μL i.p. Compounds were administered daily at the specified dose throughout the course of experiments. For data analysis, antibody levels were normalized to the recorded concentration of antibody observed in each mouse 24 hours after the i.p. administration.
ELISA analysis of serum samples was performed using MaxiSorp 96 well plates (Thermo, 44-2404-21). Plates were coated with 50 μL of BSA-DNP (Invitrogen, A23018) at 100 ug/mL in PBS and incubated at 4° C. overnight. Coating solution was then removed, and the plates were blocked with 2% BSA in PBS for 2 hours at room temperature, followed by washing twice with PBST (0.2% Tween). Serum samples were diluted in 2% BSA in PBS. […] The plates were then treated with TMB (Thermo 34028) followed by 2 M H2SO4 and analyzed for OD at 450 nm on a plate reader (BioTek Synergy 2). Sample concentrations were determined against a standard curve.

SMILES: CC(=O)N[C@H]1[C@H](OCCOCCOCCNC(=O)CCOCC(COCCC(=O)NCCOCCOCCO[C@@H]2O[C@H](CO)[C@H](O)[C@H](O)[C@H]2NC(C)=O)(COCCC(=O)NCCOCCOCCO[C@@H]2O[C@H](CO)[C@H](O)[C@H](O)[C@H]2NC(C)=O)NC(=O)CNC(=O)COCCOCCOCCNc2ccc([N+](=O)[O-])cc2[N+](=O)[O-])O[C@H](CO)[C@H](O)[C@@H]1O [D-MoDE-A]
- D-MoDE-A-mediated ternary complex formation in presence of competitive binders [1]: inhibited by competitive binders of either ASGPR or α-DNP antibody
- serum levels of α-DNP antibody [2]: decrease in serum levels of α-DNP antibody
